Patent publication US20230114728A1 (Venatorx Pharmaceuticals, Inc., priority 2019, published 2023)
≈ marks a conversion by molar mass, not a printed value.

How the values were obtained:
[1] = system: N. gonorrhoeae ATCC 49226; test: Liquid broth MIC in Fastidious broth; format: cell-based; settings: Neisseria gonorrhoeae, ATCC49226; N. gonorrhoeae strain ATCC 49226; Fastidious broth; read-out: Minimum Inhibitory Concentration, N. gonorrhoeae ATCC 49226
Outline: (§1)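 Colonies were swabbed from chocolate agar after 24 h growth and standardised by optical density at 600 nm. Compounds were serially diluted twofold in Fastidious broth, and bacteria added to give 5×10^5 CFU/mL. After about 24 h at 36 °C in 5% CO2, the lowest concentration allowing under 10% growth was taken as MIC.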

N. gonorrhoeae WHO K = test: Liquid broth MIC in Fastidious broth; format: cell-based; settings: Neisseria gonorrhoeae, read-out: Minimum Inhibitory Concentration, N. gonorrhoeae WHO K
Outline: (§2)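 Broth microdilution in Fastidious broth with 2-fold compound series; inoculum from 24 h chocolate agar colonies, 5×10^5 CFU/mL start. Incubated ~24 hours at 36° C, 5% CO2. MIC read visually as lowest concentration giving <10% growth versus full-growth wells; strains carry mosaic PBP2.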

N. gonorrhoeae WHO Z = test: Liquid broth MIC in Fastidious broth; format: cell-based; settings: Neisseria gonorrhoeae, read-out: Minimum Inhibitory Concentration, N. gonorrhoeae WHO Z
Outline: as §2

N. gonorrhoeae FA1090 = test: Liquid broth MIC in Fastidious broth; format: cell-based; settings: Neisseria gonorrhoeae; N. gonorrhoeae strain FA1090; Fastidious broth; read-out: Minimum Inhibitory Concentration, N. gonorrhoeae FA1090
Outline: as §1

N. gonorrhoeae H041 = test: Liquid broth MIC in Fastidious broth; format: cell-based; settings: Neisseria gonorrhoeae, H041, read-out: Minimum Inhibitory Concentration, N. gonorrhoeae H041
Outline: as §2

N. gonorrhoeae WHO G = test: Liquid broth MIC in Fastidious broth; format: cell-based; settings: Neisseria gonorrhoeae; N. gonorrhoeae strain WHO G; Fastidious broth; read-out: Minimum Inhibitory Concentration, N. gonorrhoeae WHO G
Outline: as §1

N. gonorrhoeae WHO Q = test: Liquid broth MIC in Fastidious broth; format: cell-based; settings: Neisseria gonorrhoeae, read-out: Minimum Inhibitory Concentration, N. gonorrhoeae WHO Q
Outline: as §2

N. gonorrhoeae WHO L = test: Liquid broth MIC in Fastidious broth; format: cell-based; settings: Neisseria gonorrhoeae; N. gonorrhoeae strain WHO L; Fastidious broth; read-out: Minimum Inhibitory Concentration, N. gonorrhoeae WHO L
Outline: as §1

P. aeruginosa PBP3 = target: T1, P. aeruginosa PBP3 (Pseudomonas aeruginosa, UniProt G3XD46); test: Bocillin-FL fluorescence polarization competition binding assay, P. aeruginosa PBP3; settings: fluorescence polarization competition binding assay using Bocillin-FL
T1 construct: made in house
T1 sequence (G3XD46 whole entry): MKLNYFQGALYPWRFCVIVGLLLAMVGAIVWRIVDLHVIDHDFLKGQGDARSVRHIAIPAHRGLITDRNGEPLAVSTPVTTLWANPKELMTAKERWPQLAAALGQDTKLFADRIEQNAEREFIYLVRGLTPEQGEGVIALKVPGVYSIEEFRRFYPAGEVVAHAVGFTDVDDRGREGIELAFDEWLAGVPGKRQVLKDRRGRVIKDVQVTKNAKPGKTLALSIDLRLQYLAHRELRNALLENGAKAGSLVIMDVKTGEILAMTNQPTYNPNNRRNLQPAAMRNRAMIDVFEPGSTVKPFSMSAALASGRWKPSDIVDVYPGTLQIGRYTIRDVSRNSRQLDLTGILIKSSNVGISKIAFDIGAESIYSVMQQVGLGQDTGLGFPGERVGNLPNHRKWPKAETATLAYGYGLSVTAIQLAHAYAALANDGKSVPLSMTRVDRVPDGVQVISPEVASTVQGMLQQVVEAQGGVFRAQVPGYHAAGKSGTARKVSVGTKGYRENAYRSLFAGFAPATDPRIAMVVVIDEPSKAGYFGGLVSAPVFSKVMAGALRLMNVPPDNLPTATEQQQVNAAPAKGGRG
Outline: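 Binding of boronic acid inhibitors to purified Pseudomonas aeruginosa (PA01) PBP3 was measured by fluorescence polarization competition with Bocillin-FL, a fluorescent penicillin V. Reactions of 80 μl contained 0.75 μM PBP3 and 0.1 μM Bocillin-FL in 50 mM Hepes (pH 8.0), 300 mM NaCl and 5% (v/v) glycerol, in black 384-well plates. FP (Excitation 490 nm, Emission 520 nm) was read for up to 60 minutes. EC50 is the concentration that halves PBP-bound Bocillin-FL.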

E. coli K12 PBP3 = target: T2, E. coli K12 PBP3 (Escherichia coli, UniProt P0AD68); test: biochemical; format: binding
T2 construct: made in house
T2 sequence (P0AD68 1-577): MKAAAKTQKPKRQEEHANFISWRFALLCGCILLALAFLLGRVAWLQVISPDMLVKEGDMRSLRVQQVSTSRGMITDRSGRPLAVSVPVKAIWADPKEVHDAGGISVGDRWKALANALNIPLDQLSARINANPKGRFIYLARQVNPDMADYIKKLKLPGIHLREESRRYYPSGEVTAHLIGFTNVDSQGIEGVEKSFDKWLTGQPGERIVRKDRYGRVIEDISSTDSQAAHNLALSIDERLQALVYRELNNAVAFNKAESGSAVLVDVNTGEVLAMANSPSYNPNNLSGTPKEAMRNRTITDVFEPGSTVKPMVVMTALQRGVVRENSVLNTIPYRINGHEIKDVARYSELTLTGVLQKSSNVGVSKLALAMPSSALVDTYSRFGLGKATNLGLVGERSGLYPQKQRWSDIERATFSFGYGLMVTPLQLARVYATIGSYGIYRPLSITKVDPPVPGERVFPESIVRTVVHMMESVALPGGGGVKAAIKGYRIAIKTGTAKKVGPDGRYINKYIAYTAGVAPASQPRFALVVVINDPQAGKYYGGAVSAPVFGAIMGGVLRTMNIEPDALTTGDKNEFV
Outline: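 Fluorescence polarization (ex 490/em 520 nm) competition of inhibitors against Bocillin-FL at 0.1 μM, read up to 60 min. Final PBP levels: E. coli PBP3 1.5 μM; A. baumannii PBP2 2.5 μM, PBP3 0.2 μM in Tris pH 8.0/NaCl/glycerol/Tween 20; N. gonorrhoeae PBP2 […] in Hepes pH 8.0/NaCl/glycerol. EC50 = concentration halving PBP-bound Bocillin-FL.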

Row | SMILES | MIC [1] | MIC (N. gonorrhoeae WHO K) | MIC (N. gonorrhoeae WHO Z) | MIC (N. gonorrhoeae FA1090) | MIC (N. gonorrhoeae H041) | MIC (N. gonorrhoeae WHO G) | MIC (N. gonorrhoeae WHO Q) | MIC (N. gonorrhoeae WHO L) | P. aeruginosa PBP3 Potency (P. aeruginosa PBP3) | EC50 (E. coli K12 PBP3)
1 | CCN1CCN(C(=O)NC(C(=O)N[C@H]2Cc3cccc(C(=O)O)c3OB2O)c2cc(Cl)c(C(=O)O)cc2F)C(=O)C1=O (stereo partly drawn) [Example 138, (3R)-3-(2-(4-carboxy-5-chloro-2-fluorophenyl)-2-(4-ethyl-2,3-dioxopiperazine-1-carboxamido)acetamido)-2-hydroxy-3,4-dihydro-2H-benzo[e][1,2]oxaborinine-8-carboxylic acid] | 4 to 8 µg/mL (≈ 6.61 to 13.2 µM) | 16 to 32 µg/mL (≈ 26.5 to 52.9 µM) | 4 to 8 µg/mL (≈ 6.61 to 13.2 µM) | < 0.125 µg/mL | 16 to 32 µg/mL (≈ 26.5 to 52.9 µM) | 1 to 2 µg/mL (≈ 1.65 to 3.31 µM) | 4 to 8 µg/mL (≈ 6.61 to 13.2 µM) | 16 to 32 µg/mL (≈ 26.5 to 52.9 µM) | D (D represents a potency <10 μM) | < 30 µM
2 | CCN1CCN(C(=O)NC(C(=O)N[C@H]2Cc3cccc(C(=O)O)c3OB2O)c2cc(F)c(C(=O)O)c(F)c2)C(=O)C1=O (stereo partly drawn) [Example 141, (3R)-3-(2-(4-carboxy-3,5-difluorophenyl)-2-(4-ethyl-2,3-dioxopiperazine-1-carboxamido)acetamido)-2-hydroxy-3,4-dihydro-2H-benzo[e][1,2]oxaborinine-8-carboxylic acid] | 1 to 2 µg/mL (≈ 1.7 to 3.4 µM) | 1 to 2 µg/mL (≈ 1.7 to 3.4 µM) | 1 to 2 µg/mL (≈ 1.7 to 3.4 µM) | < 0.125 µg/mL | 4 to 8 µg/mL (≈ 6.8 to 13.6 µM) | 0.25 to 0.5 µg/mL (≈ 0.425 to 0.85 µM) | 1 to 2 µg/mL (≈ 1.7 to 3.4 µM) | 4 to 8 µg/mL (≈ 6.8 to 13.6 µM) | D (D represents a potency <10 μM) | < 30 µM
3 | NCCN1CCN(C(=O)NC(C(=O)N[C@H]2Cc3cccc(C(=O)O)c3OB2O)c2ccc(C(=O)O)cc2O)C(=O)C1=O (stereo partly drawn) [Example 142, (3R)-3-(2-(4-(2-aminoethyl)-2,3-dioxopiperazine-1-carboxamido)-2-(4-carboxy-2-hydroxyphenyl)acetamido)-2-hydroxy-3,4-dihydro-2H-benzo[e][1,2]oxaborinine-8-carboxylic acid] | 16 to 32 µg/mL (≈ 27.4 to 54.9 µM) | > 64 µg/mL | > 64 µg/mL | 4 to 8 µg/mL (≈ 6.86 to 13.7 µM) | > 64 µg/mL | 4 to 8 µg/mL (≈ 6.86 to 13.7 µM) | > 64 µg/mL | > 64 µg/mL | C (C represents a potency between 10 and 30 μM) | 30 to 500 µM
4 | CCN1CCN(C(=O)NC(C(=O)N[C@H]2Cc3cccc(C(=O)O)c3OB2O)c2ccc(C(=O)O)cc2F)C(=O)C1=O (stereo partly drawn) [Example 145, (3R)-3-(2-(4-carboxy-2-fluorophenyl)-2-(4-ethyl-2,3-dioxopiperazine-1-carboxamido)acetamido)-2-hydroxy-3,4-dihydro-2H-benzo[e][1,2]oxaborinine-8-carboxylic acid] | 1 to 2 µg/mL (≈ 1.75 to 3.51 µM) | 4 to 8 µg/mL (≈ 7.01 to 14 µM) | 4 to 8 µg/mL (≈ 7.01 to 14 µM) | < 0.125 µg/mL | 4 to 8 µg/mL (≈ 7.01 to 14 µM) | 1 to 2 µg/mL (≈ 1.75 to 3.51 µM) | 4 to 8 µg/mL (≈ 7.01 to 14 µM) | 16 to 32 µg/mL (≈ 28.1 to 56.1 µM) | D (D represents a potency <10 μM) | < 30 µM
5 | CCN1CCN(C(=O)NC(C(=O)N[C@H]2Cc3cccc(C(=O)O)c3OB2O)c2c(Cl)cc(C(=O)O)cc2Cl)C(=O)C1=O (stereo partly drawn) [Example 150, (3R)-3-(2-(4-carboxy-2,6-dichlorophenyl)-2-(4-ethyl-2,3-dioxopiperazine-1-carboxamido)acetamido)-2-hydroxy-3,4-dihydro-2H-benzo[e][1,2]oxaborinine-8-carboxylic acid] | > 64 µg/mL | > 64 µg/mL | > 64 µg/mL | 4 to 8 µg/mL (≈ 6.44 to 12.9 µM) | > 64 µg/mL | 16 to 32 µg/mL (≈ 25.8 to 51.5 µM) | > 64 µg/mL | > 64 µg/mL | D (D represents a potency <10 μM) | 30 to 500 µM
6 | NCCN1CCN(C(=O)NC(C(=O)N[C@H]2Cc3cccc(C(=O)O)c3OB2O)c2ccc(C(=O)O)c(Cl)c2)C(=O)C1=O (stereo partly drawn) [Example 153, (3R)-3-(2-(4-(2-aminoethyl)-2,3-dioxopiperazine-1-carboxamido)-2-(4-carboxy-3-chlorophenyl)acetamido)-2-hydroxy-3,4-dihydro-2H-benzo[e][1,2]oxaborinine-8-carboxylic acid] | 16 to 32 µg/mL (≈ 26.6 to 53.2 µM) | 16 to 32 µg/mL (≈ 26.6 to 53.2 µM) | 16 to 32 µg/mL (≈ 26.6 to 53.2 µM) | 1 to 2 µg/mL (≈ 1.66 to 3.32 µM) | > 64 µg/mL | 4 to 8 µg/mL (≈ 6.65 to 13.3 µM) | 16 to 32 µg/mL (≈ 26.6 to 53.2 µM) | > 64 µg/mL | D (D represents a potency <10 μM) | < 30 µM
7 | O=C(O)c1cccc2c1OB(O)[C@@H](NC(=O)C(NC(=O)N1CCNC1=O)c1c(F)cc(O)cc1F)C2 (stereo partly drawn) [Example 156, (3R)-3-(2-(2,6-difluoro-4-hydroxyphenyl)-2-(2-oxoimidazolidine-1-carboxamido)acetamido)-2-hydroxy-3,4-dihydro-2H-benzo[e][1,2]oxaborinine-8-carboxylic acid] | 16 to 32 µg/mL (≈ 31.7 to 63.5 µM) | > 64 µg/mL | > 64 µg/mL | 1 to 2 µg/mL (≈ 1.98 to 3.97 µM) | > 64 µg/mL | 4 to 8 µg/mL (≈ 7.93 to 15.9 µM) | > 64 µg/mL | > 64 µg/mL | D (D represents a potency <10 μM) | < 30 µM
8 | CCN1CCN(C(=O)NC(C(=O)N[C@H]2Cc3cccc(C(=O)O)c3OB2O)c2c(F)cc(C(=O)O)cc2F)C(=O)C1=O (stereo partly drawn) [Example 157, (3R)-3-(2-(4-carboxy-2,6-difluorophenyl)-2-(4-ethyl-2,3-dioxopiperazine-1-carboxamido)acetamido)-2-hydroxy-3,4-dihydro-2H-benzo[e][1,2]oxaborinine-8-carboxylic acid] | 4 to 8 µg/mL (≈ 6.8 to 13.6 µM) | 4 to 8 µg/mL (≈ 6.8 to 13.6 µM) | 4 to 8 µg/mL (≈ 6.8 to 13.6 µM) | < 0.125 µg/mL | 16 to 32 µg/mL (≈ 27.2 to 54.4 µM) | 1 to 2 µg/mL (≈ 1.7 to 3.4 µM) | 4 to 8 µg/mL (≈ 6.8 to 13.6 µM) | 4 to 8 µg/mL (≈ 6.8 to 13.6 µM) | D (D represents a potency <10 μM) | < 30 µM
9 | CCN1CCN(C(=O)NC(C(=O)N[C@H]2Cc3cccc(C(=O)O)c3OB2O)c2cc(F)c(O)c(F)c2)C(=O)C1=O (stereo partly drawn) [Example 160, (3R)-3-(2-(3,5-difluoro-4-hydroxyphenyl)-2-(4-ethyl-2,3-dioxopiperazine-1-carboxamido)acetamido)-2-hydroxy-3,4-dihydro-2H-benzo[e][1,2]oxaborinine-8-carboxylic acid] | 4 to 8 µg/mL (≈ 7.14 to 14.3 µM) | 16 to 32 µg/mL (≈ 28.6 to 57.1 µM) | 4 to 8 µg/mL (≈ 7.14 to 14.3 µM) | < 0.125 µg/mL | 16 to 32 µg/mL (≈ 28.6 to 57.1 µM) | 1 to 2 µg/mL (≈ 1.78 to 3.57 µM) | 4 to 8 µg/mL (≈ 7.14 to 14.3 µM) | 16 to 32 µg/mL (≈ 28.6 to 57.1 µM) | D (D represents a potency <10 μM) | < 30 µM
10 | NCCN1CCN(C(=O)NC(C(=O)N[C@H]2Cc3cccc(C(=O)O)c3OB2O)c2cc(F)c(O)c(Cl)c2)C(=O)C1=O (stereo partly drawn) [Example 163, (3R)-3-(2-(4-(2-aminoethyl)-2,3-dioxopiperazine-1-carboxamido)-2-(3-chloro-5-fluoro-4-hydroxyphenyl)acetamido)-2-hydroxy-3,4-dihydro-2H-benzo[e][1,2]oxaborinine-8-carboxylic acid] | > 64 µg/mL | > 64 µg/mL | > 64 µg/mL | 1 to 2 µg/mL (≈ 1.69 to 3.38 µM) | > 64 µg/mL | 16 to 32 µg/mL (≈ 27 to 54.1 µM) | > 64 µg/mL | > 64 µg/mL | D (D represents a potency <10 μM) | < 30 µM
11 | CCN1CCN(C(=O)NC(C(=O)N[C@H]2Cc3cccc(C(=O)O)c3OB2O)c2cc(F)c(O)c(Cl)c2)C(=O)C1=O (stereo partly drawn) [Example 164, (3R)-3-(2-(3-chloro-5-fluoro-4-hydroxyphenyl)-2-(4-ethyl-2,3-dioxopiperazine-1-carboxamido)acetamido)-2-hydroxy-3,4-dihydro-2H-benzo[e][1,2]oxaborinine-8-carboxylic acid] | 4 to 8 µg/mL (≈ 6.94 to 13.9 µM) | 16 to 32 µg/mL (≈ 27.7 to 55.5 µM) | 4 to 8 µg/mL (≈ 6.94 to 13.9 µM) | 0.25 to 0.5 µg/mL (≈ 0.433 to 0.867 µM) | 16 to 32 µg/mL (≈ 27.7 to 55.5 µM) | 1 to 2 µg/mL (≈ 1.73 to 3.47 µM) | 16 to 32 µg/mL (≈ 27.7 to 55.5 µM) | 16 to 32 µg/mL (≈ 27.7 to 55.5 µM) | D (D represents a potency <10 μM) | < 30 µM
